Counter-ions that a name gives are not always drawn.
Key:
[1] = target: T1, recombinant guanylate cyclase reporter cell line (Rattus norvegicus, UniProt P20595); assay: Effect on a recombinant guanylate cyclase reporter cell line; format: cell-based; conditions: for EC50: read-out: EC50 (half maximal effective concentration)
T1 construct: expressed in transfected cells; host or cells: recombinant reporter cell line
T1 sequence (P20595 1-619): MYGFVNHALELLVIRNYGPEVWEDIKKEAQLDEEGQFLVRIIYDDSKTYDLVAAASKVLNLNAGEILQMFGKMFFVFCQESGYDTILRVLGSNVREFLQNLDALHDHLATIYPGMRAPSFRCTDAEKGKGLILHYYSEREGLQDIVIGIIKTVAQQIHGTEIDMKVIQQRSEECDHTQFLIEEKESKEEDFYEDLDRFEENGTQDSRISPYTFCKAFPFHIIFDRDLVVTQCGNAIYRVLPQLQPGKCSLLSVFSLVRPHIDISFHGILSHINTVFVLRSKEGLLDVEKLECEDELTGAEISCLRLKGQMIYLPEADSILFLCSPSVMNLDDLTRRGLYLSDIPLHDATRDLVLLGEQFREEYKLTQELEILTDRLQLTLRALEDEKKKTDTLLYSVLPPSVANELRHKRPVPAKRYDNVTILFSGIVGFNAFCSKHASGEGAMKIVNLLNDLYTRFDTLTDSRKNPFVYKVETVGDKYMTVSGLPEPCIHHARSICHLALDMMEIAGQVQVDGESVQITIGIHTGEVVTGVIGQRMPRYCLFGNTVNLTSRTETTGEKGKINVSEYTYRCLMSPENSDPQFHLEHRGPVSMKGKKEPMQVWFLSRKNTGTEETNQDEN
T1 sequence (P19686 1-690 partner): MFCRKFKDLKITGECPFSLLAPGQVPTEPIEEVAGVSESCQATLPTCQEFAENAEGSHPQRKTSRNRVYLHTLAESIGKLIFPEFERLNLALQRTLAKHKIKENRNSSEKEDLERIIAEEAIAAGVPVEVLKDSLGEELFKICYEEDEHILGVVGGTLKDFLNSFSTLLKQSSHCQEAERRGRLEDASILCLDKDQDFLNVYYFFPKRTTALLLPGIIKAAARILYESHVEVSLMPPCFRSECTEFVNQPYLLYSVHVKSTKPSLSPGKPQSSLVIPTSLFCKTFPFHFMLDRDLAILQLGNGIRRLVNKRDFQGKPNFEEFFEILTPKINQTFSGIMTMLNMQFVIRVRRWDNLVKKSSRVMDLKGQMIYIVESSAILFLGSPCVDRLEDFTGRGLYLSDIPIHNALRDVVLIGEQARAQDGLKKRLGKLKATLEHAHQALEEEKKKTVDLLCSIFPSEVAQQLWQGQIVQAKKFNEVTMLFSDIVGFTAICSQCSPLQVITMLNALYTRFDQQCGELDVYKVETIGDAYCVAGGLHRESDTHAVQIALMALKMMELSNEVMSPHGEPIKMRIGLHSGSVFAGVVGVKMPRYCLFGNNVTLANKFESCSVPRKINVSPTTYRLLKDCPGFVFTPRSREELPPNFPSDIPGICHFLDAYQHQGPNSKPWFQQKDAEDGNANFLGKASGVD
Method: B-1. Effect on a Recombinant Guanylate Cyclase Reporter Cell Line
The cellular activity of the compounds according to the invention was determined using a recombinant guanylate cyclase reporter cell line, as described in F. Wunder et al., Anal. Biochem. 339, 104-112 (2005).

[2] = Pharmacokinetic parameters following intravenous and oral administration in rats; format: in vivo, male Wistar rats
Source text: (§1) • Klaus Witte, Kai Hu, Johanna Swiatek, Claudia Müssig, Georg Ertl and Björn Lemmer: Experimental heart failure in rats: effects on cardiovascular circadian rhythms and on myocardial β-adrenergic signaling. Cardiovasc Res 47 (2): […], 2000; Kozo Okamoto: Spontaneous hypertension in rats. Int Rev Exp Pathol 7: 227-270, 1969; Maarten van den Buuse: Circadian Rhythms of Blood Pressure, Heart Rate, and Locomotor Activity in Spontaneously Hypertensive Rats as Measured With Radio-Telemetry. Physiology & Behavior 55(4): 783-787, 1994. B-5. Determination of Pharmacokinetic Parameters Following Intravenous and Oral Administration
(§2) The pharmacokinetic parameters of the compounds according to the invention were determined in male Wistar rats and/or in female beagles and/or in cynomolgus monkeys and/or in male CD-1 mice. Intravenous administration in the case of mice and rats was carried out by means of a species-specific plasma/DMSO formulation, and in the case of dogs and monkeys by means of a water/PEG400/ethanol formulation. In all species, oral administration of the dissolved substance was performed via gavage, based on a water/PEG400/ethanol formulation.
(§3) An internal standard (which may also be a chemically unrelated substance) was added to the samples of the compounds of the invention, calibration samples and qualifiers, and there followed protein precipitation by means of acetonitrile in excess. Addition of a buffer solution matched to the LC conditions, and subsequent vortexing, was followed by centrifugation at 1000 g. The supernatant was analysed by LC-MS/MS using C18 reversed-phase columns and variable mobile phase mixtures. The substances were quantified via the peak heights or areas from extracted ion chromatograms of specific selected ion monitoring experiments.
(§4) The plasma concentration/time plots determined were used to calculate the pharmacokinetic parameters such as AUC, Cmax, t1/2 (terminal half-life), F (bioavailability), MRT (mean residence time) and CL (clearance), by means of a validated pharmacokinetic calculation program.
(§5) Since the substance quantification was performed in plasma, it was necessary to determine the blood/plasma distribution of the substance in order to be able to adjust the pharmacokinetic parameters correspondingly.
(§6) For this purpose, a defined amount of substance was incubated in K3 EDTA whole blood of the species in question in a rocking roller mixer for 20 min. After centrifugation at 1000 g, the plasma concentration was measured (by means of LC-MS/MS; see above) and determined by calculating the ratio of the Cblood/Cplasma value.

[3] = Pharmacokinetic parameters following intravenous and oral administration in dogs; format: in vivo, female beagles; conditions: for bioavailability: female, beagle, dog, plasma, read-out: F (bioavailability)
Source text: as §1, §2, §3, §4, §5, §6

[4] = rats, intravenous administration
[5] = rats, oral administration (p.o.)

In the case of `CC(C)CN1CCN(c2ccc(-c3ccc(Cl)cc3N3CCCC(n4ncc(C(=O)O)c4C(F)F)C3)cc2)CC1` (single isomer, unassigned; enantiomer 2) [Example 2, 1-[1-{4-Chloro-4′-[4-(2-methylpropyl)piperazin-1-yl][1,1′-biphenyl]-2-yl}piperidin-3-yl]-5-(difluoromethyl)-1H-pyrazole-4-carboxylic acid (Enantiomer 2)], the “MEC (minimum effective concentration)” value [1] is reported as 1.0 nM, the EC50 [1] is reported as 8.6 nM and the “lower plasma clearance (CLplasma) in comparison to example 174 in WO 2012/058132” value ([2]; in rats as well as in dogs) is reported as “up to 10 times”. The AUCnorm [2, 4] was 7.08 kg·h/L, the AUCnorm [2, 5] was 3.77 kg·h/L and the “F (bioavailability)” value [2, 5] was 53.3%. The bioavailability ([3]; oral administration (p.o.)) was 82.8%, the AUCnorm ([3]; intravenous administration) was 81.7 kg·h/L and the AUCnorm ([3]; oral administration (p.o.)) was 67.7 kg·h/L.
Work on `O=C(O)c1cnn(-c2cccc(-c3cc(Cl)ccc3-c3ccc(N4CCN(CC5CC5)CC4)cc3)n2)c1C(F)(F)F` [174 (WO2012/058132), reference compound] yielded a bioavailability ([2]; male, Wistar, rat, plasma, po, rats, oral administration (p.o.), read-out: F (bioavailability)) of 81.8%, an AUCnorm [2, 4] of 0.77 kg·h/L and an AUCnorm [2, 5] of 0.63 kg·h/L. For the same compound, the bioavailability ([3]; oral administration (p.o.)) was 41.6%, the AUCnorm ([3]; intravenous administration) was 5.00 kg·h/L and the AUCnorm ([3]; oral administration (p.o.)) was 2.08 kg·h/L.
With `CC(C)CN1CCN(c2ccc(-c3ccc(Cl)cc3N3CCCC(n4ncc(C(=O)O)c4C(F)F)C3)cc2)CC1` (single isomer, unassigned; enantiomer 1) [Example 1, 1-[1-{4-Chloro-4′-[4-(2-methylpropyl)piperazin-1-yl][1,1′-biphenyl]-2-yl}piperidin-3-yl]-5-(difluoromethyl)-1H-pyrazole-4-carboxylic acid hydrochloride (Enantiomer 1)] the “MEC (minimum effective concentration)” value [1] was 2.3 nM, the AUCnorm [2, 4] was 1.77 kg·h/L and the AUCnorm [2, 5] was 0.57 kg·h/L. The “F (bioavailability)” value [2, 5] was 31.4%.
In the case of `CC(C)CN1CCN(c2ccc(-c3ccc(Cl)cc3N3CCCC(n4ncc(C(=O)O)c4C(F)F)C3)cc2)CC1` (single isomer, unassigned; enantiomer 2) [Example 3, 1-{1-[4-Chloro-4′-(4-isobutylpiperazin-1-yl)[biphenyl]-2-yl]piperidin-3-yl}-5-(difluoromethyl)-1H-pyrazole-4-carboxylic acid hydrochloride (Enantiomer 2)], the “MEC (minimum effective concentration)” value [1] is reported as 0.6 nM and the EC50 [1] is reported as 2.7 nM.

Reference: patent US12595247B2, “Substituted pyrazolo piperidine carboxylic acids” (Bayer Aktiengesellschaft, priority 2020, dated 2026)
